Laboratory results taken from the NIST ThermoML archive (doi:10.1016/j.fluid.2006.09.021).
Numbers after ± are expanded uncertainties.

Conditions: Liquid, Closed cell (Static) method

S [hydrogen sulfide]
Conditions	vapor or sublimation pressure [kPa]
223.19 K	167.4 ± 1.3
228.2 K	209.1 ± 1.3
233.11 K	257.4 ± 1.3
238.04 K	313.9 ± 1.3
243.04 K	380.1 ± 1.4
248.01 K	456.7 ± 1.5
252.97 K	544.2 ± 1.5
258.01 K	644.5 ± 1.6
263 K	757.7 ± 1.8
268.02 K	885.7 ± 1.9
273.17 K	1032.3 ± 2.1
278.24 K	1194.1 ± 2.3
283.26 K	1371.1 ± 2.5
288.31 K	1566.6 ± 2.8
293.1 K	1767.9 ± 3.3
293.3 K	1779.5 ± 3.3
298.41 K	2022.2 ± 3.5
303.08 K	2259.6 ± 3.9
313.11 K	2847.2 ± 4.8
323.18 K	3540.4 ± 5.9
333.17 K	4339.5 ± 7.2
343.16 K	5261.2 ± 8.7
353.17 K	6319.2 ± 10
363.16 K	7533 ± 12
373.15 K	8932.1 ± 14
